The target in this test is T1, human KSP motor domain (KSP(367H)) (Homo sapiens, UniProt P52732).
T1 construct: were used to amplify the motor domain and the neck linker region; made in house; host or cells: E. coli BL21 (DE3), pRSETa
T1 sequence (P52732 18-359 limits assumed): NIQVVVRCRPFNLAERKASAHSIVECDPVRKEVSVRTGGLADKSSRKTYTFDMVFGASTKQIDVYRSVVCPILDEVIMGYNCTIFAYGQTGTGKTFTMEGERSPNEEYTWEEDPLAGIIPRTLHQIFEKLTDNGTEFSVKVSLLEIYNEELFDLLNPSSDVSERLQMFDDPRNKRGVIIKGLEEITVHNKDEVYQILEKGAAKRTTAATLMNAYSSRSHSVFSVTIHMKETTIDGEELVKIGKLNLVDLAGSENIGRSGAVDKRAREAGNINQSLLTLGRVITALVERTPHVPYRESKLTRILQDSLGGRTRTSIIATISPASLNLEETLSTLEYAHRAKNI
As to the kind of experiment: Kinesin ATPase In Vitro Assay. It is filed as biochemical. The conditions noted are these: kinesin motor domain with microtubules, 1 mM ATP, 23° C.; free phosphate by quinaldine red/ammonium molybdate. An excerpt: I. Kinesin ATPase In Vitro Assay
Cloning and Expression of Human Poly-histidine Tagged KSP Motor Domain (KSP(367H))
Plasmids for the expression of the human KSP motor domain construct were cloned by PCR using a pBluescript full length human KSP construct (Blangy et al., Cell, vol. 83, pp 1159-1169, 1995) as a template. The N-terminal primer 5′-[…] (SEQ.ID.NO.: 1) and the C-terminal primer 5′-[…] […] (SEQ.ID.NO.: 2) were used to amplify the motor domain and the neck linker region. The PCR products were digested with AseI and XhoI, ligated into the NdeI/XhoI digestion product of pRSETa (Invitrogen) and transformed into E. coli BL21 (DE3).
Cells were grown at 37° C. to an OD600 of 0.5. After cooling the culture to room temperature expression of KSP was induced with 100 μM IPTG and incubation was continued overnight. Cells were pelleted by centrifugation and washed once with ice-cold PBS. Pellets were flash-frozen and stored −80° C.
Cell pellets were thawed on ice and resuspended in lysis buffer (50 mM K-HEPES, pH 8.0, 250 mM KCl, 0.1% Tween, 10 mM imidazole, 0.5 mM Mg-ATP, 1 mM PMSF, 2 mM benzimidine, 1× complete protease inhibitor cocktail (Roche)). Cell suspensions were incubated with 1 mg/ml lysozyme and 5 mM β-mercaptoethanol on ice for 10 minutes, followed by sonication (3×30 sec). All subsequent procedures were performed at 4° C. Lysates were centrifuged at 40,000×g for 40 minutes. Supernatants were diluted and loaded onto an SP Sepharose column (Pharmacia, 5 ml cartridge) in buffer A (50 mM K-HEPES, pH 6.8, 1 mM MgCl2, 1 mM EGTA, 10 μM Mg-ATP, 1 mM DTT) and eluted with a 0 to 750 mM KCl gradient in buffer A. Fractions containing KSP were pooled and incubated with Ni-NTA resin (Qiagen) for one hour. The resin was washed three times with buffer B (Lysis buffer minus PMSP and protease inhibitor cocktail), followed by three 15-minute incubations and washes with buffer B. Finally, the resin was incubated and washed for 15 minutes three times with buffer C (same as buffer B except for pH 6.0) and poured into a column. KSP was eluted with elution buffer (identical to buffer B except for 150 mM KCl and 250 mM imidazole). KSP-containing fractions were pooled, made 10% in sucrose, and stored at −80° C.
Microtubules are prepared from tubulin isolated from bovine brain. Purified tubulin (>97% MAP-free) at 1 mg/ml is polymerized at 37° C. in the presence of 10 μM paclitaxel, 1 mM DTT, 1 mM GTP in BRB80 buffer (80 mM K-PIPES, 1 mM EGTA, 1 mM MgCl2 at pH 6.8). The resulting microtubules are separated from non-polymerized tubulin by ultracentrifugation and removal of the supernatant. The pellet, containing the microtubules, is gently resuspended in 10 μM paclitaxel, 1 mM DTT, 50 μg/ml ampicillin, and 5 μg/ml chloramphenicol in BRB80.
The kinesin motor domain is incubated with microtubules, 1 mM ATP (1:1 MgCl2: Na-ATP), and compound at 23° C. in buffer containing 80 mM K-HEPES (pH 7.0), 1 mM EGTA, 1 mM DTT, 1 mM MgCl2, and 50 mM KCl. The reaction is terminated by a 2-10 fold dilution with a final buffer composition of 80 mM HEPES and 50 mM EDTA. Free phosphate from the ATP hydrolysis reaction is measured via a quinaldine red/ammonium molybdate assay by adding 150 μl of quench C buffer containing a 2:1 ratio of quench A:quench B. Quench A contains 0.1 mg/ml quinaldine red and 0.14% polyvinyl alcohol; quench B contains 12.3 mM ammonium molybdate tetrahydrate in 1.15 M sulfuric acid. The reaction is incubated for 10 minutes at 23° C., and the absorbance of the phospho-molybdate complex is measured at 540 nm.
`CN(C)C(=O)N1CC(c2cc(Cl)ccc2F)=CC1(CCCNC(N)=O)c1ccccc1` (stereo not shown) [Compound 23-1, 2-{3-[(aminocarbonyl)amino]propyl}-4-(5-chloro-2-fluorophenyl)-N,N-dimethyl-2-phenyl-2,5-dihydro-1H-pyrrole-1-carboxamide]: the half-inhibitory concentration (IC50) was at most 50 µM.

`COCC1(c2ccccc2)C=C(c2cc(F)ccc2F)CN1C(=O)N(C)C` (stereo not shown) [Compound 2-1, 4-(2,5-Difluorophenyl)-2-(methoxymethyl)-N,N-dimethyl-2-phenyl-2,5-dihydro-1H-pyrrole-1-carboxamide]: the IC50 was at most 50 µM.

Regarding `CN(C)C(=O)N1CC(c2cc(F)ccc2F)=CC1(CCC(=O)Nc1ccccc1)c1ccccc1` (stereo not shown) [Compound 24-2, 2-(3-anilino-3-oxopropyl)-4-(2,5-difluorophenyl)-N,N-dimethyl-2-phenyl-2,5-dihydro-1H-pyrrole-1-carboxamide], the half-inhibitory concentration (IC50) is at most 50 µM.

In turn, `CN(C)CCCC1(c2ccccc2)C=C(c2cc(F)ccc2F)CN1C(=O)N(C)C1CCOCC1` (stereo not shown) [Compound 28-3, 4-(2,5-difluorophenyl)-2-[3-(dimethylamino)propyl]-N-methyl-2-phenyl-N-tetrahydro-2H-pyran-4-yl-2,5-dihydro-1H-pyrrole-1-carboxamide] showed an IC50 of at most 50 µM.

(Values after patent publication US7235580B2, “Mitotic kinesin inhibitors” (Merck & Co., Inc., priority 2002, dated 2007).)
